How the values were obtained:
Assay type in all cases: in vivo
Beagle dogs [1] = assay: Intraocular pressure in conscious dogs by applanation pneumatonometry; conditions: topical to one eye, single daily dose over a 5 day period; IOP before and 2, 4, 6 hours after dosing; vehicle in other eye
Experimental: (§1) Measurement of intraocular pressure studies in dogs involved applanation pneumatonometry performed in Beagle dogs of both sexes. The animals remained conscious throughout the study and were gently restrained by hand. The drug was administered topically to one eye using a dropper bottle to deliver approximately a 35 μl volume, the other eye received vehicle (1% polysorbate 80 in 5 mM Tris HCI) as a control. Proparacaine at 0.25% was used for corneal anesthesia during tonometry. Intraocular pressure was determined just before drug administration and at 2, 4, 6 hours thereafter on each day of the 5 day study. Measurement of ocular surface hyperemia was performed immediately before each of the intraocular pressure readings. Ocular surface hyperemia grading was semi-quantitative and assessed according to a 5 point scoring scale used for clinical evaluations: 0=none; 0.5=trace; 1=mild; 2=moderate; and 3=severe.

Beagle dogs [2] = assay: Ocular surface hyperemia grading in dogs; conditions: topical to one eye, dosing over a 5 day period; 5 point scale 0=none, 0.5=trace, 1=mild, 2=moderate, 3=severe
Experimental: as §1

[3] = system: Cynomolgus monkeys (Macaca fascicularis); assay: Intraocular pressure in laser-induced ocular hypertensive monkeys; conditions: single topical dose, laser-treated ocular hypertensive eye, IOP at 2, 4, 6 and 24 hours
Experimental: Cynomolgus monkeys (Macaca fascicularis) were used for the intraocular pressure studies. Each animal was unilaterally laser-treated by circumferential laser photocoagulation to induce ocular hypertension in one eye. Conscious female animals were trained sit in custom design chairs and to accept applanation pneumatonometry. The drug was administered topically to one eye using a dropper bottle to deliver approximately a 35 μl volume, the other eye received vehicle (1% polysorbate 80 in 5 mM Tris HCl) as a control. Proparacaine at 0.25% was used for corneal anesthesia during tonometry. Intraocular pressure was determined just before drug administration and at 2, 4, 6, and 24 hours.

SMILES | effect on the IOP of dogs (Beagle dogs [1]) | ocular surface hyperemia of dogs (Beagle dogs [2]) | effect on the IOP of monkeys ([3]; 0.1% w/v solution) | effect on the IOP of monkeys ([3]; 0.01% w/v solution) | effect on the IOP of monkeys ([3]; 0.03% w/v solution)
CC(C)OC(=O)COc1cccc(CN(Cc2ccc(C(C)(C)C)cc2)S(=O)(=O)c2cccnc2)c1 [(3-{[(4-tert-butyl-benzyl)-(pyridine-3-sulfonyl)-amino]-methyl}-phenoxy)-acetic acid; isopropyl ester] | effective for reducing IOP of the dogs | minimal ocular surface hyperemia | lowers the elevated IOP over 24 hours almost to the level of the control normotensive eye | – | –
CC(C)(C)c1ccc(CN(Cc2cccc(OCC(=O)O)c2)S(=O)(=O)c2cccnc2)cc1 [(3-{[(4-tert-butyl-benzyl)-(pyridine-3-sulfonyl)-amino]-methyl}-phenoxy)-acetic acid] | effective for reducing IOP of the dogs | mild ocular surface hyperemia that diminishes over time | lowers the elevated IOP over 24 hours, almost to the level of the control normotensive eye | lowers the elevated IOP over 24 hours | lowers the elevated IOP over 24 hours, almost to the level of the control normotensive eye
